From ChEMBL document CHEMBL5316357, “Discovery of Linvencorvir (RG7907), a Hepatitis B Virus Core Protein Allosteric Modulator, for the Treatment of Chronic HBV Infection” (J Med Chem, 2023)

What was measured:
[1] = Half life in male cynomolgus monkey at 10 mg/kg,po by LC-MS/MS analysis; assay type: ADME, organism-based, Macaca fascicularis; conditions: in vivo
Cytochrome P450 2C9 = Cytochrome P450 2C9 (Homo sapiens, UniProt P11712); test: Inhibition of CYP2C9 (unknown origin); assay type: ADME
[2] = AUC (0-infinity) in mouse liver at 3 mg/kg,po; assay type: ADME, organism-based; design: dose 3 mg/kg, route po
[3] = AUClast in male Wistar Han rat at 30 mg/kg,po by LC-MS/MS analysis; assay type: ADME, organism-based; design: dose 30 mg/kg, route po; conditions: in vivo
[4] = Oral bioavailability in male Wistar Han rat at 30 mg/kg by LC-MS/MS analysis; assay type: ADME, organism-based; conditions: in vivo
[5] = Half life in male Wistar Han rat at 3 mg/kg,po by LC-MS/MS analysis; assay type: ADME, organism-based; conditions: in vivo
[6] = Cmax in male minipig at 3 mg/kg,po by LC-MS/MS analysis; assay type: ADME, organism-based, Sus scrofa domesticus; design: dose 3 mg/kg, route po; conditions: pig, in vivo
[7] = Tmax in male minipig at 3 mg/kg,po by LC-MS/MS analysis; assay type: ADME, organism-based, Sus scrofa domesticus; conditions: pig, in vivo
[8] = AUClast in female cynomolgus monkey at 30 mg/kg,po by LC-MS/MS analysis; assay type: ADME, organism-based, Macaca fascicularis; design: dose 30 mg/kg, route po; conditions: in vivo
[9] = Tmax in male cynomolgus monkey at 3 mg/kg,po by LC-MS/MS analysis; assay type: ADME, organism-based, Macaca fascicularis; conditions: in vivo
[10] = Cmax in female Wistar Han rat at 30 mg/kg,po by LC-MS/MS analysis; assay type: ADME, organism-based; design: dose 30 mg/kg, route po; conditions: in vivo
[11] = Oral bioavailability in female minipig at 3 mg/kg by LC-MS/MS analysis; assay type: ADME, organism-based, Sus scrofa domesticus; conditions: pig, in vivo
[12] = Cmax in female minipig at 10 mg/kg,po by LC-MS/MS analysis; assay type: ADME, organism-based, Sus scrofa domesticus; design: dose 10 mg/kg, route po; conditions: pig, in vivo
Cytochrome P450 2D6 = Cytochrome P450 2D6 (Homo sapiens, UniProt P10635); test: Inhibition of CYP2D6 (unknown origin); assay type: ADME
[13] = AUClast in male minipig at 10 mg/kg,po by LC-MS/MS analysis; assay type: ADME, organism-based, Sus scrofa domesticus; design: dose 10 mg/kg, route po; conditions: pig, in vivo
[14] = Clearance in rat plasma at 1 mg/kg,iv; assay type: ADME, organism-based
[15] = Tmax in female cynomolgus monkey at 3 mg/kg,po by LC-MS/MS analysis; assay type: ADME, organism-based, Macaca fascicularis; conditions: in vivo
[16] = Cmax in female cynomolgus monkey at 30 mg/kg,po by LC-MS/MS analysis; assay type: ADME, organism-based, Macaca fascicularis; design: dose 30 mg/kg, route po; conditions: in vivo
[17] = Tmax in female Wistar Han rat at 10 mg/kg,po by LC-MS/MS analysis; assay type: ADME, organism-based; conditions: in vivo
[18] = AUClast in male Wistar Han rat at 10 mg/kg,po by LC-MS/MS analysis; assay type: ADME, organism-based; design: dose 10 mg/kg, route po; conditions: in vivo
[19] = Half life in female minipig at 3 mg/kg,po by LC-MS/MS analysis; assay type: ADME, organism-based, Sus scrofa domesticus; conditions: pig, in vivo
[20] = Tmax in male cynomolgus monkey at 30 mg/kg,po by LC-MS/MS analysis; assay type: ADME, organism-based, Macaca fascicularis; conditions: in vivo
[21] = AUClast in minipig at 2 mg/kg,iv by LC-MS/MS analysis; assay type: ADME, organism-based, Sus scrofa domesticus; design: dose 2 mg/kg, route iv; conditions: pig, in vivo
[22] = Octanol-water partition coefficient, logD of the compound at pH 7.4; assay type: physicochemical
[23] = Half life in male Wistar Han rat at 10 mg/kg,po by LC-MS/MS analysis; assay type: ADME, organism-based; conditions: in vivo
[24] = Oral bioavailability in male cynomolgus monkey at 10 mg/kg by LC-MS/MS analysis; assay type: ADME, organism-based, Macaca fascicularis; conditions: in vivo
[25] = Half life in Wistar Han rat at 2 mg/kg,iv by LC-MS/MS analysis; assay type: ADME, organism-based; conditions: in vivo
[26] = Half life in mouse plasma at 1 mg/kg,iv; assay type: ADME, organism-based
[27] = AUClast in Wistar Han rat at 2 mg/kg,iv by LC-MS/MS analysis; assay type: ADME, organism-based; design: dose 2 mg/kg, route iv; conditions: in vivo
[28] = Cmax in male Wistar Han rat at 30 mg/kg,po by LC-MS/MS analysis; assay type: ADME, organism-based; design: dose 30 mg/kg, route po; conditions: in vivo
[29] = Tmax in male cynomolgus monkey at 10 mg/kg,po by LC-MS/MS analysis; assay type: ADME, organism-based, Macaca fascicularis; conditions: in vivo
[30] = Tmax in female Wistar Han rat at 3 mg/kg,po by LC-MS/MS analysis; assay type: ADME, organism-based; conditions: in vivo
[31] = Clearance in mouse plasma at 1 mg/kg,iv; assay type: ADME, organism-based
[32] = AUClast in male minipig at 30 mg/kg,po by LC-MS/MS analysis; assay type: ADME, organism-based, Sus scrofa domesticus; design: dose 30 mg/kg, route po; conditions: pig, in vivo
[33] = Half life in cynomolgus monkey at 2 mg/kg,iv by LC-MS/MS analysis; assay type: ADME, organism-based, Macaca fascicularis; conditions: in vivo
[34] = Half life in male minipig at 3 mg/kg,po by LC-MS/MS analysis; assay type: ADME, organism-based, Sus scrofa domesticus; conditions: pig, in vivo
[35] = Clearance in cynomolgus monkey at 2 mg/kg,iv by LC-MS/MS analysis; assay type: ADME, organism-based, Macaca fascicularis; conditions: in vivo
[36] = Oral bioavailability in female Wistar Han rat at 10 mg/kg by LC-MS/MS analysis; assay type: ADME, organism-based; conditions: in vivo
[37] = AUClast in female Wistar Han rat at 10 mg/kg,po by LC-MS/MS analysis; assay type: ADME, organism-based; design: dose 10 mg/kg, route po; conditions: in vivo
[38] = AUClast in male cynomolgus monkey at 30 mg/kg,po by LC-MS/MS analysis; assay type: ADME, organism-based, Macaca fascicularis; design: dose 30 mg/kg, route po; conditions: in vivo
[39] = Cmax in female cynomolgus monkey at 10 mg/kg,po by LC-MS/MS analysis; assay type: ADME, organism-based, Macaca fascicularis; design: dose 10 mg/kg, route po; conditions: in vivo
[40] = Tmax in female minipig at 10 mg/kg,po by LC-MS/MS analysis; assay type: ADME, organism-based, Sus scrofa domesticus; conditions: pig, in vivo
[41] = AUClast in female minipig at 3 mg/kg,po by LC-MS/MS analysis; assay type: ADME, organism-based, Sus scrofa domesticus; design: dose 3 mg/kg, route po; conditions: pig, in vivo
[42] = Cmax in male cynomolgus monkey at 30 mg/kg,po by LC-MS/MS analysis; assay type: ADME, organism-based, Macaca fascicularis; design: dose 30 mg/kg, route po; conditions: in vivo
[43] = Oral bioavailability in male minipig at 3 mg/kg by LC-MS/MS analysis; assay type: ADME, organism-based, Sus scrofa domesticus; conditions: pig, in vivo
[44] = Oral bioavailability in male Wistar Han rat at 10 mg/kg by LC-MS/MS analysis; assay type: ADME, organism-based; conditions: in vivo
[45] = Half life in female cynomolgus monkey at 10 mg/kg,po by LC-MS/MS analysis; assay type: ADME, organism-based, Macaca fascicularis; conditions: in vivo
[46] = Tmax in male minipig at 30 mg/kg,po by LC-MS/MS analysis; assay type: ADME, organism-based, Sus scrofa domesticus; conditions: pig, in vivo
[47] = Oral bioavailability in female cynomolgus monkey at 10 mg/kg by LC-MS/MS analysis; assay type: ADME, organism-based, Macaca fascicularis; conditions: in vivo
[48] = Half life in female Wistar Han rat at 10 mg/kg,po by LC-MS/MS analysis; assay type: ADME, organism-based; conditions: in vivo
[49] = Tmax in male minipig at 10 mg/kg,po by LC-MS/MS analysis; assay type: ADME, organism-based, Sus scrofa domesticus; conditions: pig, in vivo
[50] = Volume of distribution at steady state in mouse plasma at 1 mg/kg,iv; assay type: ADME, organism-based; conditions: read-out: Vdss
[51] = Cmax in female Wistar Han rat at 3 mg/kg,po by LC-MS/MS analysis; assay type: ADME, organism-based; design: dose 3 mg/kg, route po; conditions: in vivo
[52] = AUClast in male Wistar Han rat at 3 mg/kg,po by LC-MS/MS analysis; assay type: ADME, organism-based; design: dose 3 mg/kg, route po; conditions: in vivo
[53] = Tmax in male Wistar Han rat at 30 mg/kg,po by LC-MS/MS analysis; assay type: ADME, organism-based; conditions: in vivo
[54] = Oral bioavailability in male minipig at 30 mg/kg by LC-MS/MS analysis; assay type: ADME, organism-based, Sus scrofa domesticus; conditions: pig, in vivo
[55] = Toxicity in minipig assessed as NOAEL administrated upto 28 days; design: species or system Sus scrofa domesticus; conditions: pig, in vivo; time < 28 day
[56] = Tmax in female minipig at 30 mg/kg,po by LC-MS/MS analysis; assay type: ADME, organism-based, Sus scrofa domesticus; conditions: pig, in vivo
[57] = AUClast in female minipig at 30 mg/kg,po by LC-MS/MS analysis; assay type: ADME, organism-based, Sus scrofa domesticus; design: dose 30 mg/kg, route po; conditions: pig, in vivo

Cytochrome P450 2D6, sequence (P10635 whole entry): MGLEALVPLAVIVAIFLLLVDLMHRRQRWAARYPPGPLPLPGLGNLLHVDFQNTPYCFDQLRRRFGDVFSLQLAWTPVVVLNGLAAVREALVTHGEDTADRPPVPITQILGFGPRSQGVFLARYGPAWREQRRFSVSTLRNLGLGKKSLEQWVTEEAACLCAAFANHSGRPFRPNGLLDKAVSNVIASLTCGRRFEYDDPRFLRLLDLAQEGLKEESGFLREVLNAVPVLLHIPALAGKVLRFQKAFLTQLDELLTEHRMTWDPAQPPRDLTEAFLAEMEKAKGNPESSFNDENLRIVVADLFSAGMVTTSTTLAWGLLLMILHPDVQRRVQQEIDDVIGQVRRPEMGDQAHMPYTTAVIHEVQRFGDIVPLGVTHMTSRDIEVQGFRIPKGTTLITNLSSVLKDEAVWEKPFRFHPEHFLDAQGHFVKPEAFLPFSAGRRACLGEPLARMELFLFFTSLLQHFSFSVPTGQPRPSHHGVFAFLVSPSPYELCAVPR
Cytochrome P450 2C9, sequence (P11712 whole entry): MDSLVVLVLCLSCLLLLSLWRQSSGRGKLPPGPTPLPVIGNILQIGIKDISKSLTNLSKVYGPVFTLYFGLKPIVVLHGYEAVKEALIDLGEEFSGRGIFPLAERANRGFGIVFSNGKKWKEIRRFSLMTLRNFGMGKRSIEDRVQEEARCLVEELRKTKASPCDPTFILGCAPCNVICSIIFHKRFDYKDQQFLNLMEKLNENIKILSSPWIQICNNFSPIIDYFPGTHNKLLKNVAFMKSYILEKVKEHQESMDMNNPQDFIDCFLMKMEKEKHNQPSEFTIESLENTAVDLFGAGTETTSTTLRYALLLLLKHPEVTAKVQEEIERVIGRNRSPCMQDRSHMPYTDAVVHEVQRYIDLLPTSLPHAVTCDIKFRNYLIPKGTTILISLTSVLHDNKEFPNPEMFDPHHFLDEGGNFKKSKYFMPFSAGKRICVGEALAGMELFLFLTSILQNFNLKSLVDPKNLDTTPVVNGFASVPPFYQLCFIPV

- half-life [1]: 6.64 h
- IC50 (Cytochrome P450 2C9): > 50 µM
- AUC(0-inf) [2]: 8850 ng·h/mL
- AUC(0-t) [3]: 8500 ng·h/mL
- bioavailability [4]: 50%
- half-life [5]: 1.87 h
- Cmax [6]: 67.3 ng/mL
- Tmax [7]: 0.5 h
- AUC(0-t) [8]: 3150 ng·h/mL
- Tmax [9]: 0.25 h
- Cmax [10]: 3310 ng/mL
- bioavailability [11]: 10.6%
- Cmax [12]: 132 ng/mL
- IC50 (Cytochrome P450 2D6): > 50 µM
- AUC(0-t) [13]: 1240 ng·h/mL
- clearance [14]: 30 mL/min/kg
- Tmax [15]: 0.25 h
- Cmax [16]: 841 ng/mL
- Tmax [17]: 1 h
- AUC(0-t) [18]: 1440 ng·h/mL
- half-life [19]: 9.68 h
- Tmax [20]: 2 h
- AUC(0-t) [21]: 1370 ng·h/mL
- logD [22]: 1.75
- half-life [23]: 1.43 h
- bioavailability [24]: 15.8%
- half-life [25]: 1.46 h
- half-life [26]: 0.9 h
- AUC(0-t) [27]: 1120 ng·h/mL
- Cmax [28]: 1350 ng/mL
- Tmax [29]: 2 h
- Tmax [30]: 0.5 h
- clearance [31]: 20 mL/min/kg
- AUC(0-t) [32]: 4150 ng·h/mL
- half-life [33]: 1.77 h
- half-life [34]: 9.69 h
- clearance [35]: 23.6 mL/min/kg
- bioavailability [36]: 36.4%
- AUC(0-t) [37]: 1970 ng·h/mL
- AUC(0-t) [38]: 7120 ng·h/mL
- Cmax [39]: 336 ng/mL
- Tmax [40]: 0.5 h
- AUC(0-t) [41]: 201 ng·h/mL
- Cmax [42]: 2870 ng/mL
- bioavailability [43]: 12.6%
- bioavailability [44]: 26.2%
- half-life [45]: 8.13 h
- Tmax [46]: 2 h
- bioavailability [47]: 18.2%
- half-life [48]: 1.53 h
- Tmax [49]: 1 h
- Vd [50]: 1 L/kg
- Cmax [51]: 80.4 ng/mL
- AUC(0-t) [52]: 209 ng·h/mL
- Tmax [53]: 1 h
- bioavailability [54]: 20.6%
- Tmax [56]: 2 h
- AUC(0-t) [57]: 2550 ng·h/mL
Structure (SMILES): CCOC(=O)C1=C(CN2CCN3C(=O)N(CC(C)(C)C(=O)O)C[C@@H]3C2)NC(c2nccs2)=N[C@H]1c1cccc(F)c1C [LINVENCORVIR]
- NOAEL at 672 h [55]: 350 mg/kg
